Reference: article PMC4300089, “Structure-Guided Design of Selective Epac1 and Epac2 Agonists” (PLoS Biology, 2015)

What was measured:
Epac2^Δ280 = target: T1, Epac2^Δ280 (Mus musculus, UniProt Q9EQZ6); assay: Epac activation assay (Rap1B•mGDP fluorescence nucleotide exchange), Epac2^Δ280; assay type: biochemical; conditions: for AC50 / Rel. kmax: Epac2^Δ280; for Rel. kmax: maximal activity relative to cAMP
T1 construct: made in house
T1 sequence (Q9EQZ6 281-993 isoform Q9EQZ6-3): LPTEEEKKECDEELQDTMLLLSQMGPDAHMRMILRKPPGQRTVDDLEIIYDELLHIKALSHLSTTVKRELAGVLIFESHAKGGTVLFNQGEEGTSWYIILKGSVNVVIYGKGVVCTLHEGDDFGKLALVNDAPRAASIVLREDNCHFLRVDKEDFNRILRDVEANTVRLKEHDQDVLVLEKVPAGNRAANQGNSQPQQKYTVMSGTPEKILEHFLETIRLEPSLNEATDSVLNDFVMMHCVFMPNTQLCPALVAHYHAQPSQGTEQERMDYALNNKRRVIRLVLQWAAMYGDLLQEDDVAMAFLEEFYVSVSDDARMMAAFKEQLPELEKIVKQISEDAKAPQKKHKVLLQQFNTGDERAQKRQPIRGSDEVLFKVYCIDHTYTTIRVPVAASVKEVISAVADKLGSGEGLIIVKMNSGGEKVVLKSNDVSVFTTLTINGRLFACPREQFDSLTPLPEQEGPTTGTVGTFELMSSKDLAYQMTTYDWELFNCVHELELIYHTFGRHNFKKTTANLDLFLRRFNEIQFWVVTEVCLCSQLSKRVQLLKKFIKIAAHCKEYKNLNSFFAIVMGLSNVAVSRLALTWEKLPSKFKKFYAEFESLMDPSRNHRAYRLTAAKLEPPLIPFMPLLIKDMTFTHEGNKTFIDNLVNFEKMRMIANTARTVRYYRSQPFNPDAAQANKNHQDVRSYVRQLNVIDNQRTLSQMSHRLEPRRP
Description: Murine Epac2 was used as all previous structural studies were performed with it.
The activity of Epac was determined by a fluorescence assay. […] The fluorescence intensity of Rap1B•mGDP is approximately twice that of free mGDP, and thus, nucleotide exchange can be observed as a decay in fluorescence upon the addition of excess unlabeled GDP.

PKA-IIα = target: T2, PKA-IIα (Homo sapiens, UniProt P13861); assay: PKA activity assay, PKA-IIα; assay type: biochemical; conditions: for A (PKA activity): PKAIIα
T2 construct: made in house
Description: The recombinant human PKA catalytic subunit (Cα1) and the four human PKA regulatory subunits (RIα, RIβ, RIIα, RIIβ) were expressed, purified, and characterized as described. […] PKA holoenzymes were formed by mixing the R- and C-subunit at a molar ratio of 1.2:1 and extensive dialysis against 20 mM MOPS (pH 7.0), 150 mM NaCl, 2.5 mM β-mercaptoethanol, supplemented with 1 mM ATP and 10 mM MgCl2 for PKA-I at 4°C overnight. PKA holoenzymes were used at about 20 nM for the activation assay. The apparent activation constants (Kact) were determined by fitting the concentration-dependent activity to a sigmoid dose-response model.

T2 sequence (P13861 whole entry): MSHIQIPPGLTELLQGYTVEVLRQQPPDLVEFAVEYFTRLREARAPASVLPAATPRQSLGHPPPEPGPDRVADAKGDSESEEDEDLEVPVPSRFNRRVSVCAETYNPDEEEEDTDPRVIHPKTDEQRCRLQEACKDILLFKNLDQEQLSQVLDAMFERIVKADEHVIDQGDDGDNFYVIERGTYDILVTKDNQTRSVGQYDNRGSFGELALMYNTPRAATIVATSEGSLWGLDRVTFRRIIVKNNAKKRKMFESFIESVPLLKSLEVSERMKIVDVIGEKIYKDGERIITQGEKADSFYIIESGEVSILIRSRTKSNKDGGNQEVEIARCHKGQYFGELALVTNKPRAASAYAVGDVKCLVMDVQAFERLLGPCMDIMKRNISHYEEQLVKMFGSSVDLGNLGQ

## Nc1ncnc2c1ncn2C1OC2COP(O)(=S)OC2C1O (centres unmarked) [S-000, Sp-cAMPS]
Epac2^Δ280; 0.01 μM compound
  kobs: 2.4e-05 s⁻¹
Epac2^Δ280; 0.05 μM compound
  kobs: 3.7e-05 s⁻¹
Epac2^Δ280; 0.08 μM compound
  kobs: 4.4e-05 s⁻¹
Epac2^Δ280; 0.1 μM compound
  kobs: 4.8e-05 s⁻¹
Epac2^Δ280; 0.2 μM compound
  kobs: 7.3e-05 s⁻¹
Epac2^Δ280; 0.3 μM compound
  kobs: 9.9e-05 s⁻¹
Epac2^Δ280; 0.4 μM compound
  kobs: 0.000122 s⁻¹
Epac2^Δ280; 0.5 μM compound
  kobs: 0.000139 s⁻¹
Epac2^Δ280; 0.6 μM compound
  kobs: 0.000141 s⁻¹
Epac2^Δ280; 0.7 μM compound
  kobs: 0.000159 s⁻¹
Epac2^Δ280; 0.8 μM compound
  kobs: 0.000171 s⁻¹
Epac2^Δ280; 1 μM compound
  kobs: 0.000175 s⁻¹
Epac2^Δ280; 2 μM compound
  kobs: 0.000357 s⁻¹
Epac2^Δ280; 3 μM compound
  kobs: 0.000431 s⁻¹
Epac2^Δ280; 4 μM compound
  kobs: 0.000482 s⁻¹
Epac2^Δ280; 5 μM compound
  kobs: 0.000505 s⁻¹
Epac2^Δ280; 6 μM compound
  kobs: 0.000495 s⁻¹
Epac2^Δ280; 7 μM compound
  kobs: 0.000524 s⁻¹
Epac2^Δ280; 8 μM compound
  kobs: 0.000525 s⁻¹
Epac2^Δ280; 10 μM compound
  kobs: 0.000559 s⁻¹
Epac2^Δ280; 20 μM compound
  kobs: 0.0007 s⁻¹
Epac2^Δ280; 30 μM compound
  kobs: 0.000741 s⁻¹
Epac2^Δ280; 40 μM compound
  kobs: 0.000742 s⁻¹
Epac2^Δ280; 50 μM compound
  kobs: 0.000724 s⁻¹
Epac2^Δ280; 60 μM compound
  kobs: 0.000763 s⁻¹
Epac2^Δ280; 70 μM compound
  kobs: 0.000779 s⁻¹
Epac2^Δ280; 80 μM compound
  kobs: 0.000793 s⁻¹
Epac2^Δ280; 100 μM compound
  kobs: 0.000771 s⁻¹
Epac2^Δ280
  AC50: 2800 nM
  Rel. kmax: 2.5

## Cc1ccc(CSc2nc3c(N)ncnc3n2[C@@H]2O[C@@H]3CO[P@](O)(=S)O[C@H]3[C@H]2O)cc1 [S-230, Sp-8-pMeBnT-cAMPS]
PKA-IIα; concentration 1 μM
  A (PKA activity): 8.2345 U/mg
PKA-IIα; concentration 5 μM
  A (PKA activity): 1.10E+01 U/mg
PKA-IIα; concentration 1.00E+01 μM
  A (PKA activity): 1.22E+01 U/mg
PKA-IIα; concentration 1.00E+03 μM
  A (PKA activity): 2.30E+01 U/mg
PKA-IIα; concentration 1.00E-01 μM
  A (PKA activity): 5.026 U/mg
PKA-IIα; concentration 1.00E-02 μM
  A (PKA activity): 4.542 U/mg
PKA-IIα; concentration 1.00E-04 μM
  A (PKA activity): 5.243 U/mg
PKA-IIα; concentration 1.00E-05 μM
  A (PKA activity): 3.782 U/mg
PKA-IIα; concentration 2.50E+02 μM
  A (PKA activity): 1.76E+01 U/mg
PKA-IIα; concentration 5.00E+01 μM
  A (PKA activity): 1.58E+01 U/mg
PKA-IIα; concentration 5.00E+02 μM
  A (PKA activity): 2.11E+01 U/mg
Epac2^Δ280; 0.01 μM compound
  kobs: 3.1e-05 s⁻¹
Epac2^Δ280; 0.03 μM compound
  kobs: 5.1e-05 s⁻¹
Epac2^Δ280; 0.04 μM compound
  kobs: 5.8e-05 s⁻¹
Epac2^Δ280; 0.05 μM compound
  kobs: 6.5e-05 s⁻¹
Epac2^Δ280; 0.06 μM compound
  kobs: 6.9e-05 s⁻¹
Epac2^Δ280; 0.07 μM compound
  kobs: 7.9e-05 s⁻¹
Epac2^Δ280; 0.08 μM compound
  kobs: 8.9e-05 s⁻¹
Epac2^Δ280; 0.1 μM compound
  kobs: 0.000108 s⁻¹
Epac2^Δ280; 0.2 μM compound
  kobs: 0.000191 s⁻¹
Epac2^Δ280; 0.3 μM compound
  kobs: 0.000259 s⁻¹
Epac2^Δ280; 0.4 μM compound
  kobs: 0.000337 s⁻¹
Epac2^Δ280; 0.5 μM compound
  kobs: 0.000361 s⁻¹
Epac2^Δ280; 0.6 μM compound
  kobs: 0.000448 s⁻¹
Epac2^Δ280; 0.7 μM compound
  kobs: 0.000484 s⁻¹
Epac2^Δ280; 0.8 μM compound
  kobs: 0.000517 s⁻¹
Epac2^Δ280; 1 μM compound
  kobs: 0.000599 s⁻¹
Epac2^Δ280; 2 μM compound
  kobs: 0.000852 s⁻¹
Epac2^Δ280; 3 μM compound
  kobs: 0.00104 s⁻¹
Epac2^Δ280; 4 μM compound
  kobs: 0.00107 s⁻¹
Epac2^Δ280; 5 μM compound
  kobs: 0.00111 s⁻¹
Epac2^Δ280; 6 μM compound
  kobs: 0.00117 s⁻¹
Epac2^Δ280; 7 μM compound
  kobs: 0.00124 s⁻¹
Epac2^Δ280; 8 μM compound
  kobs: 0.00123 s⁻¹
Epac2^Δ280; 10 μM compound
  kobs: 0.00132 s⁻¹
Epac2^Δ280; 20 μM compound
  kobs: 0.00148 s⁻¹
Epac2^Δ280; 30 μM compound
  kobs: 0.00149 s⁻¹
Epac2^Δ280; 40 μM compound
  kobs: 0.00149 s⁻¹
Epac2^Δ280; 50 μM compound
  kobs: 0.00145 s⁻¹
Epac2^Δ280; 60 μM compound
  kobs: 0.00145 s⁻¹
Epac2^Δ280; 70 μM compound
  kobs: 0.00142 s⁻¹
Epac2^Δ280; 80 μM compound
  kobs: 0.00143 s⁻¹
Epac2^Δ280; 100 μM compound
  kobs: 0.00145 s⁻¹
Epac2^Δ280
  AC50: 70 nM
  Rel. kmax: 6.4

## Nc1ncnc2c1ncn2[C@@H]1O[C@@H]2COP(=O)(O)O[C@H]2[C@H]1O [cAMP, reference compound]
PKA-IIα; PKA-IIα, read-out: Kact
  EC50: 80 nM
PKA-IIα; concentration 1 μM
  A (PKA activity): 2.29E+01 U/mg
PKA-IIα; concentration 1.00E+01 μM
  A (PKA activity): 2.43E+01 U/mg
PKA-IIα; concentration 1.00E+02 μM
  A (PKA activity): 2.52E+01 U/mg
PKA-IIα; concentration 1.00E-01 μM
  A (PKA activity): 1.58E+01 U/mg
PKA-IIα; concentration 1.00E-02 μM
  A (PKA activity): 7.553 U/mg
PKA-IIα; concentration 1.00E-03 μM
  A (PKA activity): 5.677 U/mg
PKA-IIα; concentration 1.00E-04 μM
  A (PKA activity): 5.697 U/mg
PKA-IIα; concentration 1.00E-05 μM
  A (PKA activity): 3.782 U/mg
PKA-IIα; concentration 2.50E+02 μM
  A (PKA activity): 2.55E+01 U/mg
PKA-IIα; concentration 2.50E-01 μM
  A (PKA activity): 1.90E+01 U/mg
PKA-IIα; concentration 2.50E-02 μM
  A (PKA activity): 1.02E+01 U/mg
Epac2^Δ280; 0.4 μM compound
  kobs: 9.9e-05 s⁻¹
Epac2^Δ280; 0.5 μM compound
  kobs: 0.000111 s⁻¹
Epac2^Δ280; 0.6 μM compound
  kobs: 0.000113 s⁻¹
Epac2^Δ280; 0.7 μM compound
  kobs: 0.000125 s⁻¹
Epac2^Δ280; 0.8 μM compound
  kobs: 0.000132 s⁻¹
Epac2^Δ280; 1 μM compound
  kobs: 0.000141 s⁻¹
Epac2^Δ280; 2 μM compound
  kobs: 0.000207 s⁻¹
Epac2^Δ280; 3 μM compound
  kobs: 0.000246 s⁻¹
Epac2^Δ280; 4 μM compound
  kobs: 0.000263 s⁻¹
Epac2^Δ280; 5 μM compound
  kobs: 0.000273 s⁻¹
Epac2^Δ280; 6 μM compound
  kobs: 0.000293 s⁻¹
Epac2^Δ280; 7 μM compound
  kobs: 0.000298 s⁻¹
Epac2^Δ280; 8 μM compound
  kobs: 0.000303 s⁻¹
Epac2^Δ280; 10 μM compound
  kobs: 0.00031 s⁻¹
Epac2^Δ280; 20 μM compound
  kobs: 0.000328 s⁻¹
Epac2^Δ280; 30 μM compound
  kobs: 0.000331 s⁻¹
Epac2^Δ280; Epac2, assuming the most efficient activators shift the equilibrium fully
  share of cAMP bound protein still in an inactive conformation: ~85%
